The text below walks through data of US9624170B2, “4-(piperrazin-1-yl)-pyrrolidin-2-one compounds as monoacylglycerol lipase (MAGL) inhibitors” (TAKEDA PHARMACEUTICAL COMPANY LIMITED, priority 2013, dated 2017).

The experiment concerns the target T1, human MAGL (His-hMAGL) (Homo sapiens, UniProt Q99685).
T1 construct: made in house; host or cells: Escherichia coli BL21(DE3)
T1 sequence (Q99685 1-303): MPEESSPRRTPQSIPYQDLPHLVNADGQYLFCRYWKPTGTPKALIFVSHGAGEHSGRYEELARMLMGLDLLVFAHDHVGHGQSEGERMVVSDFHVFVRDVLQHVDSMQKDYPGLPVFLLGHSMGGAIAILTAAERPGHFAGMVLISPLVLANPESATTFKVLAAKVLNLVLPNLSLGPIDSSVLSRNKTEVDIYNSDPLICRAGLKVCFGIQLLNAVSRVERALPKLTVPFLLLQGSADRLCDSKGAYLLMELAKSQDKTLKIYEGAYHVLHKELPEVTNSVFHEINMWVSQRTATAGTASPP
Nature of the experiment: Measurement of MAGL inhibitory activity by mass spectrometry. The experiment is classed as biochemical. The following applies: 10 μM test compound; substrate 2-arachidonylglycerol, arachidonic acid by RapidFire-mass spectrometry. As to the method:
Thereafter, to each well was added 150 μM 2-arachidonylglycerol (Tocris Bioscience) by 5 μL, and the mixture was incubated at room temperature for 10 min. Then, 2% formic acid (Wako Pure Chemical Industries, Ltd.) was added by 10 μL to discontinue the reaction. Furthermore, acetonitrile (50 μL) containing 3 μM arachidonic acid-d8 (Cayman Chemical Company) was added and the mixture was stirred. The amount of arachidonic acid in the obtained enzyme reaction mixture was calculated by measuring by RapidFire-mass spectrometry and correcting by the amount of arachidonic acid-d8. High Throughput online solid phase extraction was performed using RapidFire 300TM system (Agilent Technologies, Inc.). […] The injection needle was washed with ultrapure water (500 millisecond) and acetonitrile (500 millisecond) to minimize carry-over. […] The RapidFire300 system was controlled by RapidFire UI software version 3.6 (Agilent Technologies, Inc.). The mass spectrometry of the resultant product was performed using […] triple quadrupole mass spectrometer (AB SCIEX) equipped with an electrospray ion sauce (Turbolon SprayTM) in a negative selected reaction monitoring (SRM) mode. The conditions of SRM are shown below. The parameters of the instrument were optimized as follows: capillary temperature 600° C., ion spray voltage -4.5 kV, collision gas 8, curtain gas 15 psi, ion source gas 1 60 psi, ion source gas 2 60 psi. The mass spectrometer was controlled by AnalystTM software version 1.5.1 (AB SCIEX). The peak area integration was analyzed using RapidFire integrator software version 3.6 (Agilent Technologies, Inc.). MAGL inhibitory rate (%) was calculated according to the following calculation formula.
On to `Cc1ccc(-c2cccc(N3CC(N4CCN(C(=O)c5nccs5)CC4)CC3=O)c2)cc1` (stereo not shown) [Example 90, 1-(4′-methylbiphenyl-3-yl)-4-(4-(1,3-thiazol-2-ylcarbonyl)piperazin-1-yl)pyrrolidin-2-one], for which the inhibition at 10 µM worked out at 102%. As to `Cc1cccc(-c2cccc(N3CC(N4CCN(C(=O)c5nccs5)CC4)CC3=O)c2)c1` (stereo not shown) [Example 91, 1-(3′-methylbiphenyl-3-yl)-4-(4-(1,3-thiazol-2-ylcarbonyl)piperazin-1-yl)pyrrolidin-2-one], the inhibition at 10 µM was 102%. As for `O=C(c1nccs1)N1CCN(C2CC(=O)N(c3cccc(-c4cccs4)c3)C2)CC1` (stereo not shown) [Example 93, 4-(4-(1,3-thiazol-2-ylcarbonyl)piperazin-1-yl)-1-(3-(2-thienyl)phenyl)pyrrolidin-2-one], the figure is 101%; as for `O=C(c1nccs1)N1CCN(C2CC(=O)N(c3cccc(-c4ccsc4)c3)C2)CC1` (stereo not shown) [Example 94, 4-(4-(1,3-thiazol-2-ylcarbonyl)piperazin-1-yl)-1-(3-(3-thienyl)phenyl)pyrrolidin-2-one], 99%; as for `CC(=O)Nc1cccc(-c2cccc(N3CC(N4CCN(C(=O)c5nccs5)CC4)CC3=O)c2)c1` (stereo not shown) [Example 95, N-(3′-(2-oxo-4-(4-(1,3-thiazol-2-ylcarbonyl)piperazin-1-yl)pyrrolidin-1-yl)biphenyl-3-yl)acetarnide], 99%. Turning to `O=C(c1nccs1)N1CCN(C2CC(=O)N(c3cccc(-c4ccoc4)c3)C2)CC1` (stereo not shown) [Example 96, 1-(3-(3-furyl)phenyl)-4-(4-(1,3-thiazol-2-ylcarbonyl)piperazin-1-yl)pyrrolidin-2-one], the inhibition at 10 µM came out at 99%.

As for `CC(=O)Nc1ccc(-c2cccc(N3CC(N4CCN(C(=O)c5nccs5)CC4)CC3=O)c2)cc1` (stereo not shown) [Example 97, N-(3′-(2-oxo-4-(4-(1,3-thiazol-2-ylcarbonyl)piperazin-1-yl)pyrrolidin-1-yl)biphenyl-4-yl)acetarnide], the inhibition at 10 µM is 97%. Consider `NC(=O)c1cccc(-c2cccc(N3CC(N4CCN(C(=O)c5nccs5)CC4)CC3=O)c2)c1` (stereo not shown) [Example 98, 3′-(2-oxo-4-(4-(1,3-thiazol-2-ylcarbonyl)piperazin-1-yl)pyrrolidin-1-yl)biphenyl-3-carboxamide], for which the inhibition at 10 µM stood at 100%. For the compound `O=C(c1nccs1)N1CCN(C2CC(=O)N(c3cccc(Cc4ccccc4)c3)C2)CC1` (stereo not shown) [Example 99, 1-(3-benzylphenyl)-4-(4-(1,3-thiazol-2-ylcarbonyl)piperazin-1-yl)pyrrolidin-2-one], the inhibition at 10 µM turned out to be 102%. Consider `CS(=O)(=O)Nc1cccc(-c2cccc(N3CC(N4CCN(C(=O)c5nccs5)CC4)CC3=O)c2)c1` (stereo not shown) [Example 100, N-(3′-(2-oxo-4-(4-(1,3-thiazol-2-ylcarbonyl)piperazin-1-yl)pyrrolidin-1-yl)biphenyl-3-yl)methanesulfonamide], for which the inhibition at 10 µM is 101%. `Cn1nccc1-c1cccc(N2CC(N3CCN(C(=O)c4nccs4)CC3)CC2=O)c1` (stereo not shown) [Example 101, 1-(3-(1-methyl-1H-pyrazol-5-yl)phenyl)-4-(4-(1,3-thiazol-2-ylcarbonyl)piperazin-1-yl)pyrrolidin-2-one]: the inhibition at 10 µM was 99%. With `NS(=O)(=O)c1ccc(-c2cccc(N3CC(N4CCN(C(=O)c5nccs5)CC4)CC3=O)c2)cc1` (stereo not shown) [Example 102, 3′-(2-oxo-4-(4-(1,3-thiazol-2-ylcarbonyl)piperazin-1-yl)pyrrolidin-1-yl)biphenyl-4-sulfonamide] the figure was 96%.

In the case of `NS(=O)(=O)c1cccc(-c2cccc(N3CC(N4CCN(C(=O)c5nccs5)CC4)CC3=O)c2)c1` (stereo not shown) [Example 103, 3′-(2-oxo-4-(4-(1,3-thiazol-2-ylcarbonyl)piperazin-1-yl)pyrrolidin-1-yl)biphenyl-3-sulfonamide], the inhibition at 10 µM is 100%. As for `CNC(=O)c1ccc(-c2cccc(N3CC(N4CCN(C(=O)c5nccs5)CC4)CC3=O)c2)cc1` (stereo not shown) [Example 104, N-methyl-3′-(2-oxo-4-(4-(1,3-thiazol-2-ylcarbonyl)piperazin-1-yl)pyrrolidin-1-yl)biphenyl-4-carboxamide], the inhibition at 10 µM was found to be 95%. Turning to `O=C1Cc2cc(-c3cccc(N4CC(N5CCN(C(=O)c6nccs6)CC5)CC4=O)c3)ccc2N1` (stereo not shown) [Example 105, 5-(3-(2-oxo-4-(4-(1,3-thiazol-2-ylcarbonyl)piperazin-1-yl)pyrrolidin-1-yl)phenyl)-1,3-dihydro-2H-indol-2-one], the inhibition at 10 µM turned out to be 101%.

Take `O=C(c1nccs1)N1CCN(C2CC(=O)N(c3cccc(-c4cnn5ccccc45)c3)C2)CC1` (stereo not shown) [Example 106, 1-(3-(pyrazolo[1,5-a]pyridin-3-yl)phenyl)-4-(4-(1,3-thiazol-2-ylcarbonyl)piperazin-1-yl)pyrrolidin-2-one]: the inhibition at 10 µM is 99%. As for `O=C(c1nccs1)N1CCN(C2CC(=O)N(c3ccc4c(ccn4-c4cc(C(F)(F)F)ccn4)c3)C2)CC1` (stereo not shown) [Example 108, 4-(4-(1,3-thiazol-2-ylcarbonyl)piperazin-1-yl)-1-(1-(4-(trifluoromethyl)pyridin-2-yl)-1H-indol-5-yl)pyrrolidin-2-one], the figure is 97%; as for `O=C(c1nccs1)N1CCN(C2CC(=O)N(c3ccc4c(ccn4-c4ccnc(C(F)(F)F)c4)c3)C2)CC1` (stereo not shown) [Example 109, 4-(4-(1,3-Thiazol-2-ylcarbonyl)piperazin-1-yl)-1-(1-(2-(trifluoromethyl)pyridin-4-yl)-1H-indol-5-yl)pyrrolidin-2-one], 100%; as for `CS(=O)(=O)Nc1ccc(-c2cccc(N3CC(N4CCN(C(=O)c5nccs5)CC4)CC3=O)c2)cc1` (stereo not shown) [Example 110, N-(3′-(2-oxo-4-(4-(1,3-thiazol-2-ylcarbonyl)piperazin-1-yl)pyrrolidin-1-yl)biphenyl-4-yl)methanesulfonamide], 99%. Consider `O=C(c1nccs1)N1CCN(C2CC(=O)N(c3ccc4c(ccn4-c4ccc(C(F)(F)F)nc4)c3)C2)CC1` (stereo not shown) [Example 111, 4-(4-(1,3-thiazol-2-ylcarbonyl)piperazin-1-yl)-1-(1-(6-(trifluoromethyl)pyridin-3-yl)-1H-indol-5-yl)pyrrolidin-2-one], for which the inhibition at 10 µM stood at 99%. With `CNS(=O)(=O)c1ccc(-c2cccc(N3CC(N4CCN(C(=O)c5nccs5)CC4)CC3=O)c2)cc1` (stereo not shown) [Example 112, N-methyl-3′-(2-oxo-4-(4-(1,3-thiazol-2-ylcarbonyl)piperazin-1-yl)pyrrolidin-1-yl)biphenyl-4-sulfonamide] the figure was 6%. As for `O=C(c1nccs1)N1CCN(C2CC(=O)N(c3ccc4[nH]ccc4c3)C2)CC1` (stereo not shown) [Example 113, 1-(1H-indol-5-yl)-4-(4-(1,3-thiazol-2-ylcarbonyl)piperazin-1-yl)pyrrolidin-2-one], the inhibition at 10 µM is 80%.

Take `O=C(c1nccs1)N1CCN(C2CC(=O)N(c3ccc4c(cnn4Cc4ccc(F)cc4)c3)C2)CC1` (stereo not shown) [Example 114, 1-(1-(4-Fluorobenzyl)-1H-indazol-5-yl)-4-(4-(1,3-thiazol-2-ylcarbonyl)piperazin-1-yl)pyrrolidin-2-one]: the inhibition at 10 µM was 98%. On to `O=C(c1nccs1)N1CCN(C2CC(=O)N(c3cccc(NC4CCCCC4)c3)C2)CC1` (stereo not shown) [Example 115, 1-(3-(cyclohexylamino)phenyl)-4-(4-(1,3-thiazol-2-ylcarbonyl)piperazin-1-yl)pyrrolidin-2-one], for which the inhibition at 10 µM was 97%. With `CC(=O)Nc1ccc(Nc2cccc(N3CC(N4CCN(C(=O)c5nccs5)CC4)CC3=O)c2)cc1` (stereo not shown) [Example 116, N-(4-((3-(2-oxo-4-(4-(1,3-thiazol-2-ylcarbonyl)piperazin-1-yl)pyrrolidin-1-yl)phenyl)amino)phenyl)acetamide], the inhibition at 10 µM is 99%. As to `CC(=O)N(C)c1ccc(Nc2cccc(N3CC(N4CCN(C(=O)c5nccs5)CC4)CC3=O)c2)cc1` (stereo not shown) [Example 117, N-methyl-N-(4-((3-(2-oxo-4-(4-(1,3-thiazol-2-ylcarbonyl)piperazin-1-yl)pyrrolidin-1-yl)phenyl)amino)phenyl)acetamide], the inhibition at 10 µM is 99%.

Consider `CC(=O)Nc1cccc(Nc2cccc(N3CC(N4CCN(C(=O)c5nccs5)CC4)CC3=O)c2)c1` (stereo not shown) [Example 118, N-(3-((3-(2-oxo-4-(4-(1,3-thiazol-2-ylcarbonyl)piperazin-1-yl)pyrrolidin-1-yl)phenyl)amino)phenyl)acetamide], for which the inhibition at 10 µM amounted to 99%. Regarding `O=C(c1nccs1)N1CCN(C2CC(=O)N(c3cccc(Nc4ccc(N5CCCC5=O)cc4)c3)C2)CC1` (stereo not shown) [Example 119, 1-(3-((4-(2-oxopyrrolidin-1-yl)phenyl)amino)phenyl)-4-(4-(1,3-thiazol-2-ylcarbonyl)piperazin-1-yl)pyrrolidin-2-one], the inhibition at 10 µM is 100%.

The inhibition is the change of the read-out against control, counted positive when it falls.
